Laboratory results from article PMC8305651 (International Journal of Molecular Sciences, 2021).

Target: wild-type PA-Nter (Influenza A virus, UniProt C3W5S0, DEL51-57/DEL61-72/E59G)
Assay type: biochemical, influenza A/California/07/2009 (H1N1)

Structure (SMILES): O=c1cc(-c2ccc(O)c(O)c2)oc2c([C@@H]3O[C@H](CO)[C@@H](O)[C@H](O)[C@H]3O)c(O)cc(O)c12 [orientin]
- inhibition of endonuclease activity, gel-based assay (qualitative): higher inhibitory potency than luteolin
